Measurements taken from patent publication US4044043A, “Derivatives of 9-oxo-13-trans-prostenoic acid esters” (American Cyanamid Company, priority 1975, dated 1977).
Values after ≈ are worked out from the molar mass of the structure shown.

Tests used:
[1] = system: Trichophyton tonsurans NIH 662; experiment: agar-dilution streak-plate antimicrobial assay; type: cell-based; settings: NIH662, read-out: Minimal inhibitory conc. (3)
How it was run: (§1)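 Test solutions at 2.5 mg/ml serially diluted two-fold, then 1 ml mixed into 9 ml nutrient agar suited to bacteria or fungi. Plates streaked with overnight broth cultures or saline spore suspensions, then incubated. MIC (μg/ml) is the concentration giving complete growth inhibition by visual inspection.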

[2] = system: Streptococcus pyogenes C 203; experiment: agar-dilution streak-plate antimicrobial assay; type: cell-based; settings: C203, read-out: Minimal inhibitory conc. (8)
How it was run: as §1

[3] = system: Mycobacterium smegmatis ATCC 606; experiment: agar-dilution streak-plate antimicrobial assay; type: cell-based; settings: Mycolicibacterium smegmatis, ATCC606, read-out: Minimal inhibitory conc. (6)
How it was run: as §1

[4] = system: Staphylococcus aureus Rose ATCC 14154; experiment: agar-dilution streak-plate antimicrobial assay; type: cell-based; settings: ATCC14154, read-out: Minimal inhibitory conc. (7)
How it was run: as §1

[5] = system: Trichophyton mentagrophytes E 11; experiment: agar-dilution streak-plate antimicrobial assay; type: cell-based; settings: E11, read-out: Minimal inhibitory conc. (4)
How it was run: as §1

gastric acid secretion = experiment: Inhibition of Gastric Acid Secretion (Pylorous-Ligated Rat), Shay rat procedure; type: in vivo, rats (male, CFE strain); settings: read-out: % Inhibition of Control Gastric Acid Secretion; for inhibition in vivo at 50 mg/kg: 50 mg./kg. intraduodenal; for inhibition in vivo at 100 mg/kg: 100 mg./kg. intraduodenal
How it was run: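 Male CFE rats were fasted 48 h, then pylorus-ligated under ether. Gastric contents were titrated with 0.02N or 0.04N NaOH to pH 8.4 for acid output, and ≥20% inhibition counted as active.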

[6] = system: bronchospasms elicited by 5-hydroxytryptamine; experiment: Bronchodilator Activity (Konzett Assay) against 5-hydroxytryptamine; type: in vivo, guinea pigs; settings: Cavia porcellus; three logarithmic cumulative intravenous doses
How it was run: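 Guinea pigs given intravenous spasmogen (5-hydroxytryptamine, histamine or acetylcholine) per Konzett procedure. ED50 derived from three logarithmic cumulative intravenous doses of test compound.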

[7] = system: Microsporum canis ATCC 10214; experiment: agar-dilution streak-plate antimicrobial assay; type: cell-based; settings: ATCC10214, read-out: Minimal inhibitory conc. (1)
How it was run: as §1

Trichophyton rubrum E 97 = experiment: agar-dilution streak-plate antimicrobial assay; type: cell-based; settings: E97, read-out: Minimal inhibitory conc. (5)
How it was run: as §1

[8] = system: Microsporum gypseum ATCC 14683; experiment: agar-dilution streak-plate antimicrobial assay; type: cell-based; settings: Nannizzia gypsea, ATCC14683, read-out: Minimal inhibitory conc. (2)
How it was run: as §1

SMILES	MIC [1] [µg/mL]	MIC [2] [µg/mL]	MIC [3] [µg/mL]	MIC [4] [µg/mL]	MIC [5] [µg/mL]	inhibition in vivo at 50 mg/kg (gastric acid secretion) [%]	ED50 [6] [mg/kg]	MIC [7] [µg/mL]	MIC (Trichophyton rubrum E 97) [µg/mL]	MIC [8] [µg/mL]	inhibition in vivo at 100 mg/kg (gastric acid secretion) [%]	inhibition in vivo at 200 mg/kg (gastric acid secretion; 200 mg./kg. intraduodenal) [%]
CCCCCC/C=C/[C@@H]1CCCC(=O)[C@H]1CCCCCCC(=O)O (relative stereo) [9-oxo-10a-homo-13-trans-prostenoic acid]	100 (≈ 297 µM)	10 (≈ 29.7 µM)	25 (≈ 74.3 µM)	100 (≈ 297 µM)	100 (≈ 297 µM)	80	> 10.1	–	–	–	–	–
CC/C=C\CC/C=C/[C@@H]1CCC(=O)[C@H]1CCCCCCC(=O)O (relative stereo) [9-oxo-13-trans-17-cis-prostadienoic acid]	62 (≈ 193 µM)	62 (≈ 193 µM)	62 (≈ 193 µM)	250 (≈ 780 µM)	62 (≈ 193 µM)	–	0.422	125 (≈ 390 µM)	125 (≈ 390 µM)	62 (≈ 193 µM)	21	–
CCCCCC/C=C/[C@H]1CCC(=O)[C@@H]1CCCCCCC(=O)O (relative stereo) [9-oxo-13-trans-prostenoic acid]	50 (≈ 155 µM)	62 (≈ 192 µM)	62 (≈ 192 µM)	250 (≈ 775 µM)	50 (≈ 155 µM)	–	0.077	50 (≈ 155 µM)	250 (≈ 775 µM)	50 (≈ 155 µM)	–	69
CCC/C=C/[C@H]1CCC(=O)[C@@H]1CCCCCCC(=O)O (relative stereo) [9-oxo-18,19,20-trinor-13-trans-prostenoic acid]	250 (≈ 892 µM)	250 (≈ 892 µM)	–	–	250 (≈ 892 µM)	50	0.484	–	–	250 (≈ 892 µM)	92	–
CCCCC/C=C/[C@H]1CCC(=O)[C@@H]1CCCCCCC(=O)O (relative stereo) [9-oxo-20-nor-13-trans-prostenoic acid]	25 (≈ 81 µM)	62 (≈ 201 µM)	62 (≈ 201 µM)	250 (≈ 810 µM)	25 (≈ 81 µM)	–	0.152	50 (≈ 162 µM)	50 (≈ 162 µM)	50 (≈ 162 µM)	49	–
CC(C)CC/C=C/[C@@H]1CCC(=O)[C@H]1CCCCCCC(=O)O (relative stereo) [17-methyl-9-oxo-19,20-dinor-13-trans-prostenoic acid]	25 (≈ 81 µM)	62 (≈ 201 µM)	62 (≈ 201 µM)	250 (≈ 810 µM)	25 (≈ 81 µM)	–	2.8	50 (≈ 162 µM)	50 (≈ 162 µM)	50 (≈ 162 µM)	28	–
O=C(O)CCCCCC[C@H]1C(=O)CC[C@@H]1/C=C/CCCCCCCl (relative stereo) [20-chloro-9-oxo-13-trans-prostenoic acid]	16 (≈ 44.8 µM)	62 (≈ 174 µM)	250 (≈ 700 µM)	250 (≈ 700 µM)	62 (≈ 174 µM)	–	2.39	250 (≈ 700 µM)	62 (≈ 174 µM)	62 (≈ 174 µM)	56	–
O=C(O)CCCCCC[C@@H]1C(=O)CC[C@H]1/C=C/CCCCl (relative stereo) [20-chloro-9-oxo-17,18,19-trinor-13-trans-prostenoic acid]	250 (≈ 794 µM)	–	–	–	250 (≈ 794 µM)	–	1.48	250 (≈ 794 µM)	250 (≈ 794 µM)	250 (≈ 794 µM)	34	–
CCCCCCC/C=C/[C@@H]1CCC(=O)[C@H]1CCCCCCC(=O)O (relative stereo) [20-methyl-9-oxo-13-trans-prostenoic acid]	25 (≈ 74.3 µM)	10 (≈ 29.7 µM)	25 (≈ 74.3 µM)	50 (≈ 149 µM)	25 (≈ 74.3 µM)	–	3.42	100 (≈ 297 µM)	100 (≈ 297 µM)	50 (≈ 149 µM)	34	–
